Among the data in the OPERA property sets (Mansouri et al. 2018) are logP values, retold here.

Molecules are shown by their SMILES. Peptide text beside a SMILES is read from it.

In general, logP refers to a log measure of how a compound divides between an organic and an aqueous phase. Lower therefore signals lower lipophilicity.

With `CSc1cccc(OCC(=O)O)c1`, the log partition coefficient (logP) turned out to be 1.9.
In the case of `C=CCOc1cc(N)ccc1C(=O)O` it was 1.25; in that of `CCC(NC(C)=O)C(=O)OC` (stereo not drawn), -0.17; in that of `CNS(=O)(=O)c1ccccc1`, 0.92.
In turn, `O=C1CCCCN1` gave a logP of -0.46.
`CCCc1cccc(OCC(=O)O)c1` yielded a logP of 2.71.
The compound `c1ccn2cccc2c1` registered a logP of 2.49.
The compound `CNS(=O)(=O)c1ccc(S(I)=C(N(C)C)N(C)C)cc1` (stereo not drawn) showed a logP of -1.4.
With `CCN(CC)C(C)C(=O)OCn1ncc2c(=O)[nH]cnc21` (stereo not drawn), the logP came out at 0.72.
Compound `CC(=O)c1ccco1` gave a log partition coefficient (logP) of 0.52.
In the case of `N#CCc1ccc(Cl)cc1`, the logP turned out to be 2.47.
`CCOC(=O)C(F)F` came in with a logP of 0.87.
`CCNc1nc(NCC)nc(SC(F)F)n1`: the log partition coefficient (logP) was 3.28.
The compound `CCOP(=O)(OCC)SCSCC` came in with a log partition coefficient (logP) of 2.07.
Compound `O=[N+]([O-])C=Cc1ccco1` gave a logP of 1.56.
Consider `CN(C)c1cccc(O)c1`, for which the lipophilicity (logP) was 1.56.
In the case of `c1cnc2[nH]ccc2c1`, the logP is 1.82.
In the case of `CCCCOC(=O)c1cc(O)c(O)c(O)c1` it was 2.41.
Take `O=C1CC(OC(=O)c2ccccc2)N1` (stereo not drawn): the lipophilicity (logP) worked out at 1.37.
The compound `C[N+](C)(C)Cc1ccccc1.[Cl-]` came in with a logP of -2.17.
`O=c1oc2ccccc2c(O)c1Cc1c(O)c2ccccc2oc1=O`: the logP was found to be 2.07.
As to `NC(=O)CCCCc1cccnc1`, the logP worked out at 0.4.
Take `Nc1nnc(Cc2ccccc2)o1`: the logP was determined as 0.95.
The same measure for `CCOP(=O)(NC(C)C)Oc1ccc(SC)c(C)c1` (stereo not drawn): 3.23; for `CS(=O)(=O)c1ccc(N)cc1`: -0.12; for `COCOC`: 0.
`CC=Cc1c(OC)cc(Cc2cnc(N)nc2N)cc1OCC` returned a log partition coefficient (logP) of 2.65.
With `C[C@]12CCC(=O)C=C1CC[C@@H]1[C@@H]2CC[C@@]2(C)[C@H]1CC[C@]2(C)O`, the logP stood at 3.36.
The compound `CC(C)CO` had a logP of 0.76.
In the case of `CC(=O)Nc1ccc2[nH]c(C)cc2c1` it was 1.21; in that of `O=C1c2ccccc2C(=O)N1c1ccccc1`, 2.4; in that of `O=[N+]([O-])c1ccc2cccccc1-2`, 2.59.
As to `C=CCC1(CC=C)C(=O)NC(=O)N(C)C1=O`, the logP amounted to 1.55.
`COC1C(OC(C)=O)CC(=O)OC(C)CC=CC=CC(O)C(C)CC(CC=O)C1OC1OC(C)C(OC2CC(C)(O)C(OC(=O)CC(C)C)C(C)O2)C(N(C)C)C1O` (stereo not drawn): the logP is 2.39.
`COc1ccc(C=C(C(C)=O)C(C)=O)cc1` registered a logP of 1.73.
As for `O=S(=O)(O)c1cc(O)c2ccccc2c1`, the log partition coefficient (logP) was -0.18.
The compound `CCNC(C)C` showed a logP of 0.93.
As to `Oc1c(Br)cc(Br)cc1Br`, the lipophilicity (logP) came out at 4.13.
The compound `NS(=O)(=O)c1ccc2ncccc2c1` displayed a logP of 0.56.
For the compound `Clc1cccc(-c2cccc(Cl)c2Cl)c1Cl`, the logP turned out to be 6.18.
As for `CCNc1nc(Cl)nc(NC(C)C)n1`, the logP is 2.61.
In turn, `CCN(C(=O)SCc1ccccc1)C(C)C(C)C` (stereo not drawn) yielded a log partition coefficient (logP) of 4.6.
Consider `CN(C)/N=N/c1ccc2n[nH]cc2c1`, for which the logP was found to be 2.36.
The compound `O=c1[nH]c(=O)n(C2CCCO2)cc1F` (stereo not drawn) displayed a lipophilicity (logP) of -0.27.
Regarding `O=C(NP(=O)(N1CC1)N1CC1)c1cccc(Br)c1`, the logP was 1.43.
`CCCCCC1(c2ccncc2)CCC(=O)NC1=O` (stereo not drawn) displayed a logP of 2.26.
In turn, `OCC(O)COc1ccccc1` (stereo not drawn) returned a lipophilicity (logP) of 0.7.
The compound `OCc1ccc2ccccc2c1` gave a lipophilicity (logP) of 2.21.
The same measure for `CC(C)C[N+](=O)[O-]`: 1.4.
For `CCC(C)C(NC(=O)C(CCC(=O)O)NC(C)=O)C(=O)NC(Cc1ccccc1)C(N)=O` (stereo not drawn) (Ac-Glu-Ile-Phe-NH2; configuration not given here), the logP was determined as 0.43.
The same measure for `Nc1ccccc1-c1ccccc1`: 2.84; for `c1ccc2c(c1)Oc1ccccc1S2`: 4.54.
`NC(=O)NCc1ccccc1` returned a logP of 0.73.
The compound `CON(C)C(=O)Nc1ccc([N+](=O)[O-])cc1` came in with a lipophilicity (logP) of 1.74.
Consider `CCCCC(=O)OCC(=O)C1(O)C(C)CC2C3CCC4=CC(=O)C=CC4(C)C3(F)C(O)CC21C` (stereo not drawn), for which the logP was 3.87.
As for `O=C(O)c1cccc(C(F)(F)F)c1`, the logP was 2.95.
The same measure for `FC(F)(Cl)Cl`: 2.16.
The same measure for `COC1CC(OC2CCC3(C)C(CCC4C3CC(O)C3(C)C(C5=CC(=O)OC5)CCC43O)C2)OC(C)C1OC1CC(O)C(OC2CC(O)C(OC)C(C)O2)C(C)O1` (stereo not drawn): 2.14; for `COC(=O)c1ccsc1`: 1.76; for `CCN(CC)CC(F)(F)F`: 1.88.
The same measure for `CC(=O)c1cnc2ccccc2c1`: 1.76; for `O=C(O)COc1ccc(F)cc1`: 1.64.
Compound `CCn1cc(C(=O)O)c(=O)c2cnc(N3CCNCC3)nc21` registered a logP of -2.15.
The same measure for `NCc1ccccn1`: -0.21.
Turning to `CC(=O)c1cccs1`, the logP is 1.25.
For `COP(=O)(OC)SCn1nnc2ccccc2c1=O`, the logP is 0.78.
As for `CC(=O)c1ccc(O)cc1`, the logP came to 1.35.
Compound `CCCCc1ccc(C(=O)O)cc1` showed a log partition coefficient (logP) of 3.97.
As to `Nc1ccc(S(=O)(=O)Nc2ccc(Cl)cc2)cc1`, the logP is 2.71.
Compound `C=C(C)Cl` registered a logP of 2.
`O=C(O)c1ccccc1S` registered a lipophilicity (logP) of 2.39.
On to `CC(Cl)(Cl)Cl`, for which the logP stood at 2.49.
`CN(C)C(=O)OCc1cccc(Cl)c1`: the lipophilicity (logP) was determined as 2.82.
`Oc1cc(Cl)c(Cl)c(Cl)c1` registered a log partition coefficient (logP) of 4.01.
The same measure for `O=C(O)CCCc1c[nH]c2ccccc12`: 2.3; for `CN(C)CCOC(=O)c1ccc(C#N)cc1`: 1.43.
On to `ICI`, for which the logP was 2.3.
For the compound `O=C(Nc1ncnc2c1ncn2[C@H]1C[C@H](O)[C@@H](CO)O1)c1ccccc1`, the logP worked out at 0.22.
In the case of `CC(=O)N(C)N=Nc1ccc(C)cc1`, the logP was 3.23.
With `CCCCCCOC(=O)c1cc(O)c(O)c(O)c1`, the logP came to 3.17.
Consider `CC12CC(O)C3C(CCC4(O)CC(O)CC(O)C34CO)C1(O)CCC2C1=CC(=O)OC1` (stereo not drawn), for which the logP was -0.02.
`CCN(CC)C(C)CN1c2ccccc2Sc2ccccc21` (stereo not drawn): the logP was 4.77.
The same measure for `CNc1c(Cl)cccc1Cl`: 2.91.
In turn, `CC(C)(C)[N+](=O)[O-]` showed a log partition coefficient (logP) of 1.17.
`O=C1CCC(=O)N1c1ccccc1F`: the log partition coefficient (logP) turned out to be 0.22.
The same measure for `Cc1cccc(C(N)=O)c1`: 1.18; for `SC1=NCCCN1`: -0.68; for `O=C(O)c1cc([N+](=O)[O-])ccc1Cl`: 2.03.
As for `CN1CCCC1`, the log partition coefficient (logP) was found to be 0.92.
The compound `Nc1ccc(CCO)cc1` came in with a logP of 0.1.
Regarding `CNCCO`, the lipophilicity (logP) is -0.94.
`COC(=O)c1ccccn1`: the logP turned out to be 0.36.
In turn, `O=C(O)Cc1ccccc1Nc1ccc(Cl)c(Cl)c1` showed a log partition coefficient (logP) of 4.9.
`COC(=O)c1cnc([N+](=O)[O-])n1C` yielded a logP of 0.51.
In the case of `O=C(O)CN1CCN(C(=O)Cn2c(=O)sc3ccc(Cl)cc32)CC1` it was -0.71.
Regarding `Nc1cnnc2ccccc12`, the logP is 1.04.
`COC(=O)NC(=S)Nc1ccccc1NC(=S)NC(=O)OC` came in with a log partition coefficient (logP) of 1.4.
`CCCCOP(=O)(OCCCC)Oc1ccccc1` returned a log partition coefficient (logP) of 4.27.
Regarding `CCOC(=O)C(C)NC(=O)CCCCSc1ncnc2nc[nH]c12` (stereo not drawn), the log partition coefficient (logP) was 1.51.
The compound `Oc1cccc2cccnc12` had a lipophilicity (logP) of 2.02.
In the case of `CN(C)CCC(c1ccc(Cl)cc1)c1ccccn1` (stereo not drawn) it was 3.38.
`CN(C)Cc1ccccc1` came in with a log partition coefficient (logP) of 1.98.
With `COC(=O)CC#N`, the logP is -0.47.
Compound `CCC1=Nc2ccc(Cl)cc2S(=O)(=O)N1` yielded a lipophilicity (logP) of 1.62.
With `O=[N+]([O-])c1cccc2cccnc12`, the logP worked out at 1.4.
Turning to `OCC(O)c1ccc(O)c(O)c1` (stereo not drawn), the log partition coefficient (logP) is -1.01.
The same measure for `C#CCC(O)c1cccnc1` (stereo not drawn): 1.21.
Take `O=CNc1cccc([N+](=O)[O-])c1`: the log partition coefficient (logP) was 1.4. The logP values of the last two compounds are within 0.2 log units of each other.
On to `NC(=O)c1cccnc1`, for which the logP was -0.37.
`O=S(=O)(c1ccccc1)c1ccccc1` registered a log partition coefficient (logP) of 2.4.
Turning to `Cc1ccc2[nH]ccc2c1`, the logP was found to be 2.68.
As for `Oc1c(Cl)cc(Cl)c(Cl)c1Cc1c(O)c(Cl)cc(Cl)c1Cl`, the logP turned out to be 7.54.
`Cc1cc2ccccc2cn1` registered a logP of 2.68.
`CC(=O)N[C@@H](Cc1ccccc1)C(=O)N[C@H](C(N)=O)C(C)C` (Ac-Phe-Val-NH2) returned a logP of 0.43.
Consider `CCCCOCc1ccccc1NC(=O)OCCN1CCCCC1`, for which the logP worked out at 3.94.
The compound `CCOC(=O)C=Cc1ccccc1` yielded a log partition coefficient (logP) of 2.99.
For `Nc1ccccc1`, the lipophilicity (logP) amounted to 0.9.
Regarding `CC(=O)C(C)C`, the logP was found to be 0.84. The logP values of the last two compounds are within 0.2 log units of each other.
Compound `OCCCc1cccnc1` registered a lipophilicity (logP) of 0.6.
In the case of `Brc1ccc(Br)cc1` it was 3.79.
In the case of `Cn1c(=O)cnc2ccccc21`, the lipophilicity (logP) stood at 0.79.
For the compound `CCOC(=O)c1ccc(N=NN(C)CCO)cc1`, the logP worked out at 2.66.
The compound `Nc1cccc(S(N)(=O)=O)c1` came in with a logP of -0.38.
The same measure for `O=C(O)COc1ccc(O)cc1`: 0.65; for `O=C1CN=C(c2ccccc2)c2cc([N+](=O)[O-])ccc2N1`: 2.25; for `C1CN2CCC1CC2`: 1.38.
Compound `Cc1c(Cl)cc(-c2ccc(=O)[nH]n2)cc1Cl` registered a logP of 3.2.
The same measure for `O=c1nc[nH]c(=O)[nH]1`: -1.87; for `CCn1cc(C)c(=O)[nH]c1=O`: -0.15; for `Nc1ccccc1I`: 2.32.
In turn, `O=C(O)Cc1ccccc1Nc1ccccc1` registered a logP of 3.49.
Regarding `CCOP(=S)(OCC)O/N=C(\C#N)c1ccccc1`, the logP stood at 4.39.
Turning to `CC(C)(N)Cc1ccccc1`, the logP was 1.9.
`O=C(O)c1ccsc1` displayed a log partition coefficient (logP) of 1.5.
`CN(C)C(N(C)C)=S(I)c1ccc(F)cc1` (stereo not drawn) yielded a logP of -0.58.
Consider `COc1cc(CCN)cc(OC)c1OC`, for which the logP was found to be 0.78.
In turn, `Nc1ccc(C(=O)O)c(Br)c1` returned a log partition coefficient (logP) of 1.49.
`CCC(Br)C(=O)O` (stereo not drawn) returned a logP of 1.42.
